Measurements as given in US20100222269A1, “IMPROVED DERIVATIVES OF AMYLIN” (priority 2007, published 2010).
Starred links: 1 amine or outer side, 2 acyl side, 3 side chain; linkers in the order of their positions; H or OH if unused. Positions of bridges follow the written chain, without caps; N, C: chain ends. Residues, ends and D or L forms follow the SMILES beside them. *: point of attachment. C20 diacid = O=C(O)CCCCCCCCCCCCCCCCCCC(=O)*; γGlu = O=C(O)[C@H](CCC(=O)[*:2])N[*:1]

Molecular target: T1, Amylin 3(a) receptor (human calcitonin receptor (CTa) with RAMP-3) (Homo sapiens, UniProt O60896+P30988)
T1 construct: expressed in transfected cells; host or cells: BHK570 (baby hamster kidney) cells, stably transfected, with CRE-luciferase reporter
Assay: Amylin luciferase assay (CRE-luciferase reporter in BHK Amylin 3(a)//CRE-luc cells)
Type: cell-based
Conditions: BHK570 cells with human calcitonin receptor (CTa), RAMP-3 and CRE-luciferase reporter; 4 hours incubation; read-out: Potency luciferase assay
How it was run: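 BHK570 cells stably expressing human calcitonin receptor (CTa), RAMP-3 and a CRE-luciferase reporter, about 20.000 cells/well, were exposed to standard or sample for 4 h at 37° C in phenol-red-free DMEM with 10% FBS and 10 mM Hepes pH 7,4. Luminescence was read after 30 min with LucLite at room temperature.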

T1 sequence (O60896 24-148): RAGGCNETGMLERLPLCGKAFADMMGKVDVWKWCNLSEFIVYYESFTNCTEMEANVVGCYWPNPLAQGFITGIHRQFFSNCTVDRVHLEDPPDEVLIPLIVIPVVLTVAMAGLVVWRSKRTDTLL
T1 sequence (P30988 25-474): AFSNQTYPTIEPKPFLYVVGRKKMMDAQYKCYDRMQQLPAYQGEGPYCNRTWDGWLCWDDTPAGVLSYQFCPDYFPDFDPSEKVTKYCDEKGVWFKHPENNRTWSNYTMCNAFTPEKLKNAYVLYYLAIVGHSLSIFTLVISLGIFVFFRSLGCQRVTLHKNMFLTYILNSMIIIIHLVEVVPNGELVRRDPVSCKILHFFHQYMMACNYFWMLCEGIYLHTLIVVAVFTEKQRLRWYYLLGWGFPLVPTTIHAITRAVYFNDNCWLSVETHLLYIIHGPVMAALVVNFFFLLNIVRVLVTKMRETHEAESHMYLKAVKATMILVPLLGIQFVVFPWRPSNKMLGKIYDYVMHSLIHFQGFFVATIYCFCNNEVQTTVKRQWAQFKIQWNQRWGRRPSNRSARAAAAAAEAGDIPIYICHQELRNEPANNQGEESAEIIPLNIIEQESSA

For `CC[C@H](C)[C@H](NC(=O)[C@@H]1CCCN1C(=O)CNC(=O)[C@H](Cc1ccccc1)NC(=O)[C@H](CC(N)=O)NC(=O)[C@H](CC(N)=O)NC(=O)[C@H](CO)NC(=O)[C@H](CO)NC(=O)[C@H](Cc1c[nH]cn1)NC(=O)[C@@H](NC(=O)[C@H](CC(C)C)NC(=O)[C@H](Cc1ccccc1)NC(=O)[C@H](CC(N)=O)NC(=O)[C@H](C)NC(=O)[C@H](CC(C)C)NC(=O)[C@H](CCCNC(=N)N)NC(=O)[C@H](CCC(N)=O)NC(=O)[C@@H](NC(=O)[C@H](C)NC(=O)[C@@H]1CSSC[C@H](NC(=O)CC[C@H](NC(=O)CCCCCCCCCCCCCCCCCCC(=O)O)C(=O)O)C(=O)N[C@@H](CC(N)=O)C(=O)N[C@@H]([C@@H](C)O)C(=O)N[C@@H](C)C(=O)N[C@@H]([C@@H](C)O)C(=O)N1)[C@@H](C)O)C(C)C)C(=O)N[C@@H](CC(C)C)C(=O)N1CCC[C@H]1C(=O)N1CCC[C@H]1C(=O)N[C@H](C(=O)N[C@@H](CC(N)=O)C(=O)N[C@H](C(=O)NCC(=O)N[C@@H](CO)C(=O)N[C@@H](CC(N)=O)C(=O)N[C@H](C(=O)N[C@@H](Cc1ccc(O)cc1)C(N)=O)[C@@H](C)O)C(C)C)[C@@H](C)O` [Example 43, N-alpha-[(S)-4-carboxy-4-(19-carboxynonadecanoylamino)butyryl]-pramlintide (2-37)] ({C20 diacid-γGlu}-CNTATCATQRLANFLVHSSNNFGPILPPTNVGSNTY-NH2; disulfide 1-6; C-terminus assumed), the EC50 was 0.1 nM.

`CC[C@H](C)[C@H](NC(=O)[C@@H]1CCCN1C(=O)CNC(=O)[C@H](Cc1ccccc1)NC(=O)[C@H](CC(N)=O)NC(=O)[C@H](CC(N)=O)NC(=O)[C@H](CO)NC(=O)[C@H](CO)NC(=O)[C@H](Cc1c[nH]cn1)NC(=O)[C@@H](NC(=O)[C@H](CC(C)C)NC(=O)[C@H](Cc1ccccc1)NC(=O)[C@H](CC(N)=O)NC(=O)[C@H](C)NC(=O)[C@H](CC(C)C)NC(=O)[C@H](CCCNC(=N)N)NC(=O)[C@H](CCC(N)=O)NC(=O)[C@@H](NC(=O)[C@H](C)NC(=O)[C@@H]1CSSC[C@H](NC(=O)[C@H](CCCNC(=N)N)NC(=O)CC[C@H](NC(=O)CCCCCCCCCCCCCCCCCCC(=O)O)C(=O)O)C(=O)N[C@@H](CC(N)=O)C(=O)N[C@@H]([C@@H](C)O)C(=O)N[C@@H](C)C(=O)N[C@@H]([C@@H](C)O)C(=O)N1)[C@@H](C)O)C(C)C)C(=O)N[C@@H](CC(C)C)C(=O)N1CCC[C@H]1C(=O)N1CCC[C@H]1C(=O)N[C@H](C(=O)N[C@@H](CC(N)=O)C(=O)N[C@H](C(=O)NCC(=O)N[C@@H](CO)C(=O)N[C@@H](CC(N)=O)C(=O)N[C@H](C(=O)N[C@@H](Cc1ccc(O)cc1)C(N)=O)[C@@H](C)O)C(C)C)[C@@H](C)O` [Example 45, N-alpha-[(S)-4-carboxy-4-(19-carboxynonadecanoylamino)butyryl]-[Arg1]-pramlintide (1-37)] ({C20 diacid-γGlu}-RCNTATCATQRLANFLVHSSNNFGPILPPTNVGSNTY-NH2; disulfide 2-7; C-terminus assumed) showed an EC50 of 0.04 nM.

In the case of `CC[C@H](C)[C@H](NC(=O)[C@@H]1CCCN1C(=O)CNC(=O)[C@H](Cc1ccccc1)NC(=O)[C@H](CC(N)=O)NC(=O)[C@H](CC(N)=O)NC(=O)[C@H](CO)NC(=O)[C@H](CO)NC(=O)[C@H](Cc1c[nH]cn1)NC(=O)[C@@H](NC(=O)[C@H](CC(C)C)NC(=O)[C@H](Cc1ccccc1)NC(=O)[C@H](CC(N)=O)NC(=O)[C@H](C)NC(=O)[C@H](CC(C)C)NC(=O)[C@H](CCCNC(=N)N)NC(=O)[C@H](CCC(N)=O)NC(=O)[C@@H](NC(=O)[C@H](C)NC(=O)[C@@H]1CSSC[C@H](NC(=O)[C@H](CCCNC(=N)N)NC(=O)[C@H](CCC(=O)O)NC(=O)CCCCCCCCCCCCCCCCCCC(=O)O)C(=O)N[C@@H](CC(N)=O)C(=O)N[C@@H]([C@@H](C)O)C(=O)N[C@@H](C)C(=O)N[C@@H]([C@@H](C)O)C(=O)N1)[C@@H](C)O)C(C)C)C(=O)N[C@@H](CC(C)C)C(=O)N1CCC[C@H]1C(=O)N1CCC[C@H]1C(=O)N[C@H](C(=O)N[C@@H](CC(N)=O)C(=O)N[C@H](C(=O)NCC(=O)N[C@@H](CO)C(=O)N[C@@H](CC(N)=O)C(=O)N[C@H](C(=O)N[C@@H](Cc1ccc(O)cc1)C(N)=O)[C@@H](C)O)C(C)C)[C@@H](C)O` [Example 46, N-alpha-(19-carboxynonadecanoyl)-Glu-[Arg1]-pramlintide (1-37)] ({C20 diacid}-ERCNTATCATQRLANFLVHSSNNFGPILPPTNVGSNTY-NH2; disulfide 3-8; C-terminus assumed), the EC50 is reported as 0.1 nM.

Work on `CC[C@H](C)[C@H](NC(=O)[C@@H]1CCCN1C(=O)CNC(=O)[C@H](Cc1ccccc1)NC(=O)[C@H](CC(N)=O)NC(=O)[C@H](CC(N)=O)NC(=O)[C@H](CO)NC(=O)[C@H](CO)NC(=O)[C@H](Cc1c[nH]cn1)NC(=O)[C@@H](NC(=O)[C@H](CC(C)C)NC(=O)[C@H](Cc1ccccc1)NC(=O)[C@H](CC(N)=O)NC(=O)[C@H](C)NC(=O)[C@H](CC(C)C)NC(=O)[C@H](CCCNC(=N)N)NC(=O)[C@H](CCC(N)=O)NC(=O)[C@@H](NC(=O)[C@H](C)NC(=O)[C@@H]1CSSC[C@H](NC(=O)[C@H](CCCNC(=N)N)NC(=O)[C@H](CCCNC(=N)N)NC(=O)CC[C@H](NC(=O)CCCCCCCCCCCCCCCCCCC(=O)O)C(=O)O)C(=O)N[C@@H](CC(N)=O)C(=O)N[C@@H]([C@@H](C)O)C(=O)N[C@@H](C)C(=O)N[C@@H]([C@@H](C)O)C(=O)N1)[C@@H](C)O)C(C)C)C(=O)N[C@@H](CC(C)C)C(=O)N1CCC[C@H]1C(=O)N1CCC[C@H]1C(=O)N[C@H](C(=O)N[C@@H](CC(N)=O)C(=O)N[C@H](C(=O)NCC(=O)N[C@@H](CO)C(=O)N[C@@H](CC(N)=O)C(=O)N[C@H](C(=O)N[C@@H](Cc1ccc(O)cc1)C(N)=O)[C@@H](C)O)C(C)C)[C@@H](C)O` [Example 47, N-alpha-[(S)-4-carboxy-4-(19-carboxynonadecanoylamino)butyryl]-Arg-[Arg1]-pramlintide (1-37)] ({C20 diacid-γGlu}-RRCNTATCATQRLANFLVHSSNNFGPILPPTNVGSNTY-NH2; disulfide 3-8; C-terminus assumed) yielded an EC50 of 0.1 nM.

Compound `CC[C@H](C)[C@H](NC(=O)[C@@H]1CCCN1C(=O)CNC(=O)[C@H](Cc1ccccc1)NC(=O)[C@H](CC(N)=O)NC(=O)[C@H](CC(N)=O)NC(=O)[C@H](CO)NC(=O)[C@H](CO)NC(=O)[C@H](Cc1c[nH]cn1)NC(=O)[C@@H](NC(=O)[C@H](CC(C)C)NC(=O)[C@H](Cc1ccccc1)NC(=O)[C@H](CC(N)=O)NC(=O)[C@H](C)NC(=O)[C@H](CC(C)C)NC(=O)[C@H](CCCNC(=N)N)NC(=O)[C@H](CCC(N)=O)NC(=O)[C@@H](NC(=O)[C@H](C)NC(=O)[C@@H]1CSSC[C@H](NC(=O)[C@H](CCCCN)NC(=O)[C@H](CCCCN)NC(=O)CC[C@H](NC(=O)CCCCCCCCCCCCCCCCCCC(=O)O)C(=O)O)C(=O)N[C@@H](CC(N)=O)C(=O)N[C@@H]([C@@H](C)O)C(=O)N[C@@H](C)C(=O)N[C@@H]([C@@H](C)O)C(=O)N1)[C@@H](C)O)C(C)C)C(=O)N[C@@H](CC(C)C)C(=O)N1CCC[C@H]1C(=O)N1CCC[C@H]1C(=O)N[C@H](C(=O)N[C@@H](CC(N)=O)C(=O)N[C@H](C(=O)NCC(=O)N[C@@H](CO)C(=O)N[C@@H](CC(N)=O)C(=O)N[C@H](C(=O)N[C@@H](Cc1ccc(O)cc1)C(N)=O)[C@@H](C)O)C(C)C)[C@@H](C)O` [Example 48, N-alpha-[(S)-4-carboxy-4-(19-carboxynonadecanoylamino)butyryl]-Lys-pramlintide (1-37)] ({C20 diacid-γGlu}-KKCNTATCATQRLANFLVHSSNNFGPILPPTNVGSNTY-NH2; disulfide 3-8) has an EC50 of 0.1 nM.

`CC[C@H](C)[C@H](NC(=O)[C@@H]1CCCN1C(=O)CNC(=O)[C@H](Cc1ccccc1)NC(=O)[C@H](CC(N)=O)NC(=O)[C@H](CC(N)=O)NC(=O)[C@H](CO)NC(=O)[C@H](CO)NC(=O)[C@H](Cc1c[nH]cn1)NC(=O)[C@@H](NC(=O)[C@H](CC(C)C)NC(=O)[C@H](Cc1ccccc1)NC(=O)[C@H](CC(N)=O)NC(=O)[C@H](C)NC(=O)[C@H](CC(C)C)NC(=O)[C@H](CCCNC(=N)N)NC(=O)[C@H](CCC(N)=O)NC(=O)[C@@H](NC(=O)[C@H](C)NC(=O)[C@@H]1CSSC[C@H](NC(=O)[C@H](CCCCN)NC(=O)[C@H](CCCNC(=N)N)NC(=O)CC[C@H](NC(=O)CCCCCCCCCCCCCCCCCCC(=O)O)C(=O)O)C(=O)N[C@@H](CC(N)=O)C(=O)N[C@@H]([C@@H](C)O)C(=O)N[C@@H](C)C(=O)N[C@@H]([C@@H](C)O)C(=O)N1)[C@@H](C)O)C(C)C)C(=O)N[C@@H](CC(C)C)C(=O)N1CCC[C@H]1C(=O)N1CCC[C@H]1C(=O)N[C@H](C(=O)N[C@@H](CC(N)=O)C(=O)N[C@H](C(=O)NCC(=O)N[C@@H](CO)C(=O)N[C@@H](CC(N)=O)C(=O)N[C@H](C(=O)N[C@@H](Cc1ccc(O)cc1)C(N)=O)[C@@H](C)O)C(C)C)[C@@H](C)O` [Example 49, N-alpha-[(S)-4-carboxy-4-(19-carboxynonadecanoylamino)butyryl]-Arg-pramlintide (1-37)] ({C20 diacid-γGlu}-RKCNTATCATQRLANFLVHSSNNFGPILPPTNVGSNTY-NH2; disulfide 3-8; C-terminus assumed) showed an EC50 of 0.2 nM.
